Test results reported in patent US20180369421A1, “METHOD FOR REDUCING THE PLACEBO EFFECT IN CLINICAL TRIALS” (priority 2017, published 2018).
Several values for one entry are separate records, joined by “and”; a condition that tells them apart may be missing. Equal values may be shown once.

Assays:
[1] = cited from earlier work
[2] = system: constipation in subjects already on an opioid pain medication; assay: Clinical trial of a new product for the treatment of constipation in subjects already on an opioid pain medication, with Acebo arms (Example 2); assay type: in vivo, human; details: Acebo arm
Description: A clinical trial is being conducted to measure the efficacy of a new product for the treatment of constipation in subjects already on an opioid pain medication. Nine hundred sixty (960) subjects are enrolled. All are maintained on their present pain medication regimen supplied by the clinical treatment team. The investigational product is supplied by the investigational treatment team as well. The opioid pain medication regimen continues as it was; the investigational product is taken either once or twice per day in a randomized manner.
(§1) All subjects sign an informed consent document prior to beginning the clinical research trial. They are all informed of the following: • 1. 300 of the subjects will be randomized to the new investigational medication, product Y, once daily, and the known benefits and the known potential side effects of Product Y are disclosed. To keep the study blinded, subjects will take a pill twice a day, but one of their doses will be a placebo. • 2. 300 of the subjects will be randomized to the new investigational medication, product Y, twice daily, and the known benefits and the known potential side effects of Product Y are disclosed. • 3. 300 of the subjects will be randomized to placebo taken twice a day. • 4.
5. […] Because you could receive an Acebo, you could get worse.

[3] = system: constipation in subjects not on any adjunctive medication that could cause constipation; assay: Clinical trial of two doses of a new product for the treatment of constipation in subjects not on adjunctive medication that could cause constipation, with Acebo arms (Example 3); assay type: in vivo, human; details: Acebo arm, twice daily
Description: A clinical trial is being conducted to measure of the efficacy of two different doses of a new product for the treatment of constipation in subjects not on any adjunctive medication that could cause constipation. Nine hundred sixty (960) subjects are enrolled. The investigational product is supplied by the investigational treatment team. Subjects who have been on both of the potential Acebos, nortriptyline and St John's wort, will be excluded from this study.
as §1, with “the known and potential side” for “the known potential side”, “• 4. […]” for “• 4.”

[4] = drugs.com; cited from earlier work

## Clc1cccc(Cl)c1N=C1NCCN1 [clonidine]
[1]; 932 of 31,961 people reported to have side effects
  depression among people who took the drug and reported side effects: ~3% and 2.92%

## N=C(N)NC(=O)Cc1c(Cl)cccc1Cl [guanfacine]
[1]; in vivo
  depression as side effect: does not cause depression
[1]; on average
  fatigue (tiredness), share of people: 16%
  lethargy, share of people: 6%
  somnolence, share of people: 34%

## CNCCC=C1c2ccccc2CCc2ccccc21 [nortriptyline]
[2]
  worsening: 2%
[3]
  worsening in abdominal discomfort: 1%
[4]
  constipation as side effect, share of the time: ≥ 10%
